Laboratory results as given in PMC5448077, “Development of an orally available inhibitor of CLK1 for skipping a mutated dystrophin exon in Duchenne muscular dystrophy” (Scientific Reports, 2017).

How the values were obtained:
Experiment in all cases: biochemical
[1] = molecular target: ALK(G1202R) (Homo sapiens, UniProt Q9UM73, G1202R)
Outline: (§1)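 Human kinases phosphorylating kinase-specific synthetic peptides, assayed by mobility shift (MSA) or IMAP fluorescence polarization, in 20 mM HEPES pH 7.5, 0.01% Triton X-100, 2 mM DTT with substrate/ATP-metal. Reactions ran 1 or 5 h at room temperature; activity = P/(P + S) from product and substrate peak heights.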

[2] = molecular target: BMX (Homo sapiens, UniProt P51813)
Outline: as §1

[3] = molecular target: CDK7/CycH/MAT1 (Homo sapiens, UniProt P50613)
Outline: as §1

[4] = molecular target: DAPK1 (Homo sapiens, UniProt P53355)
Outline: as §1

[5] = molecular target: DYRK1B (Homo sapiens, UniProt Q9Y463)
Outline: as §1

[6] = molecular target: EPHA4 (Homo sapiens, UniProt P54764)
Outline: as §1

[7] = molecular target: EPHA6 (Homo sapiens, UniProt Q9UF33)
Outline: as §1

[8] = molecular target: EPHB4 (Homo sapiens, UniProt P54760)
Outline: as §1

[9] = molecular target: T1, Erk5 (Homo sapiens, UniProt Q13164)
T1 construct: gene MAPK7
Outline: as §1

[10] = molecular target: FES (Homo sapiens, UniProt P07332)
Outline: as §1

[11] = molecular target: T2, JNK3 (Homo sapiens, UniProt P53779)
T2 construct: gene MAPK10
Outline: as §1

[12] = molecular target: KIT(D816E) (Homo sapiens, UniProt P10721, D816E)
Outline: as §1

[13] = molecular target: KIT(V654A) (Homo sapiens, UniProt P10721, V654A)
Outline: as §1

[14] = molecular target: LATS2 (Homo sapiens, UniProt Q9NRM7)
Outline: as §1

[15] = molecular target: LCK (Homo sapiens, UniProt P06239)
Outline: as §1

[16] = molecular target: T3, LOK (Homo sapiens, UniProt O94804)
T3 construct: gene STK10
Outline: as §1

[17] = molecular target: MAPKAPK5 (Homo sapiens, UniProt Q8IW41)
Outline: as §1

[18] = molecular target: MARK4 (Homo sapiens, UniProt Q96L34)
Outline: as §1

[19] = molecular target: T4, MGC42105 (Homo sapiens, UniProt Q8IY84)
T4 construct: gene NIM1K
Outline: as §1

[20] = molecular target: T5, MINK (Homo sapiens, UniProt Q8N4C8)
T5 construct: gene MINK1
Outline: as §1

[21] = molecular target: T6, MSK2 (Homo sapiens, UniProt O75676)
T6 construct: gene RPS6KA4
Outline: as §1

[22] = molecular target: T7, MST3 (Homo sapiens, UniProt Q9Y6E0)
T7 construct: gene STK24
Outline: as §1

[23] = molecular target: NEK6 (Homo sapiens, UniProt Q9HC98)
Outline: as §1

[24] = molecular target: NEK9 (Homo sapiens, UniProt Q8TD19)
Outline: as §1

[25] = molecular target: PAK1 (Homo sapiens, UniProt Q13153)
Outline: as §1

[26] = molecular target: PAK2 (Homo sapiens, UniProt Q13177)
Outline: as §1

[27] = molecular target: PHKG1 (Homo sapiens, UniProt Q16816)
Outline: as §1

[28] = molecular target: T8, PKD2 (Homo sapiens, UniProt Q9BZL6)
T8 construct: gene PRKD2
Outline: as §1

[29] = molecular target: ROCK2 (Homo sapiens, UniProt O75116)
Outline: as §1

[30] = molecular target: T9, RSK1 (Homo sapiens, UniProt Q15418)
T9 construct: gene RPS6KA1
Outline: as §1

[31] = molecular target: T10, p38β (Homo sapiens, UniProt Q15759)
T10 construct: gene MAPK11
Outline: as §1

FES, sequence (P07332 whole entry): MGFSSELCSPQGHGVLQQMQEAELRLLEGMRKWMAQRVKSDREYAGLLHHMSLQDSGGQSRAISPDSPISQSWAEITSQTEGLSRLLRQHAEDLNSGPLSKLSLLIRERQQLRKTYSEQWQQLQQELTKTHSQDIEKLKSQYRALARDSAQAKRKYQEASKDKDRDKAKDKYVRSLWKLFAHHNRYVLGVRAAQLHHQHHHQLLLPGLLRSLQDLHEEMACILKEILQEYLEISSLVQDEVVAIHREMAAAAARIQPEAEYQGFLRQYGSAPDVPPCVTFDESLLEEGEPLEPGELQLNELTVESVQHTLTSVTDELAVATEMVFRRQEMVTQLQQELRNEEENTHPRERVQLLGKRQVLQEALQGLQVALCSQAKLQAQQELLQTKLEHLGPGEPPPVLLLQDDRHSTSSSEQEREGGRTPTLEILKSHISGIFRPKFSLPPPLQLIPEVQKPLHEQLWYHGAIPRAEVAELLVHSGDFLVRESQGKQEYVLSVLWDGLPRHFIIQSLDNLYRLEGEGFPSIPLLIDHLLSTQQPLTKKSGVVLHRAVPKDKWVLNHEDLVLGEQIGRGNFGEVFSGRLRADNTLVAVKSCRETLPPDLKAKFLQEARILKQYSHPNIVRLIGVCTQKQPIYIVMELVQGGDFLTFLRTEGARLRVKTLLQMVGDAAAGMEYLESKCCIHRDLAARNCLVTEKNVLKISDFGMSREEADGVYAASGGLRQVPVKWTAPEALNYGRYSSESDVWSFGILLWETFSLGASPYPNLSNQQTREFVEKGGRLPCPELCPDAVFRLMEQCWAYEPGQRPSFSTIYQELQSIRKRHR
NEK6, sequence (Q9HC98 whole entry): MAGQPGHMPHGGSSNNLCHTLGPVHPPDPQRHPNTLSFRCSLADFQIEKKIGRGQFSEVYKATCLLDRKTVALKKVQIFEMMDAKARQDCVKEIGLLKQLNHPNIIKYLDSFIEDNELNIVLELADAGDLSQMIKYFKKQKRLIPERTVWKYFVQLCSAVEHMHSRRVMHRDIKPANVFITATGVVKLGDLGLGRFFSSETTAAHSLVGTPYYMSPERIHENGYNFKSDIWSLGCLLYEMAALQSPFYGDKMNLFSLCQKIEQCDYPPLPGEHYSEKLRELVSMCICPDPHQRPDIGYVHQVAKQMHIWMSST
LCK, sequence (P06239 whole entry): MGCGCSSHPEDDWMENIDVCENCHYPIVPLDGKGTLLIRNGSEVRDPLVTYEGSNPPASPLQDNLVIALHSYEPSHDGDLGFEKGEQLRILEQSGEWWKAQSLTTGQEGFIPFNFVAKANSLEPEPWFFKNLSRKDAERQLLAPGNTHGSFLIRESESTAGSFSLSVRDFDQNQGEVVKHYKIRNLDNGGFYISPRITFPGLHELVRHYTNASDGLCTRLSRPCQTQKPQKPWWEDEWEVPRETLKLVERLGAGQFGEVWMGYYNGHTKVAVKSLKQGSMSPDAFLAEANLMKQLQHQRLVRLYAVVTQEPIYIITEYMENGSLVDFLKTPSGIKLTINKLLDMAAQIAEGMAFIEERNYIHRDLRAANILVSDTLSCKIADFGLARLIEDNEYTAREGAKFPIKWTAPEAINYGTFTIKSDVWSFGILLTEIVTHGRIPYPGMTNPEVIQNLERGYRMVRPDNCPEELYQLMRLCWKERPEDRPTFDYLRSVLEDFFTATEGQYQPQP
MAPKAPK5, sequence (Q8IW41 whole entry): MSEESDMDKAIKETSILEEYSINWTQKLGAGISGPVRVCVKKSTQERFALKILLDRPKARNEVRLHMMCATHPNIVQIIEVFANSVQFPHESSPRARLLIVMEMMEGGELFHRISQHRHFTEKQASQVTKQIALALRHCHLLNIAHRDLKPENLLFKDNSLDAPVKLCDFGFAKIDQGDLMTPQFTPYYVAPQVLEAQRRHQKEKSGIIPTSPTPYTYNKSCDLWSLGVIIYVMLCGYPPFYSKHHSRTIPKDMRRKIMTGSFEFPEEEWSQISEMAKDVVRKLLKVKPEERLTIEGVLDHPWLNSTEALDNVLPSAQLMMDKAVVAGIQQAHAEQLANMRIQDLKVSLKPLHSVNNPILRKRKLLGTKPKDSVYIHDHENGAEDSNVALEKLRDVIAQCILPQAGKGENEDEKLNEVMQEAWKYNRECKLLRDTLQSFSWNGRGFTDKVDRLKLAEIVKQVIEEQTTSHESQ
T10 sequence (Q15759 whole entry): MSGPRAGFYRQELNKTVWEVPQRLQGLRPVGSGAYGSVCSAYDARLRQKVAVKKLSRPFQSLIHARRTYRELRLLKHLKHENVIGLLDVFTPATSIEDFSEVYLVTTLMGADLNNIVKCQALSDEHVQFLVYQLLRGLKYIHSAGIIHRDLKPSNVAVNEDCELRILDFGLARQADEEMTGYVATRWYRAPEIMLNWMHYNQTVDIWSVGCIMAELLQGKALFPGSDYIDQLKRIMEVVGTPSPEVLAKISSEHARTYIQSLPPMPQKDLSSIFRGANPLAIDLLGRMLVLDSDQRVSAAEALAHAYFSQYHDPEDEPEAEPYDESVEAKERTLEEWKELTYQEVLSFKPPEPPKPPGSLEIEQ
DAPK1, sequence (P53355 whole entry): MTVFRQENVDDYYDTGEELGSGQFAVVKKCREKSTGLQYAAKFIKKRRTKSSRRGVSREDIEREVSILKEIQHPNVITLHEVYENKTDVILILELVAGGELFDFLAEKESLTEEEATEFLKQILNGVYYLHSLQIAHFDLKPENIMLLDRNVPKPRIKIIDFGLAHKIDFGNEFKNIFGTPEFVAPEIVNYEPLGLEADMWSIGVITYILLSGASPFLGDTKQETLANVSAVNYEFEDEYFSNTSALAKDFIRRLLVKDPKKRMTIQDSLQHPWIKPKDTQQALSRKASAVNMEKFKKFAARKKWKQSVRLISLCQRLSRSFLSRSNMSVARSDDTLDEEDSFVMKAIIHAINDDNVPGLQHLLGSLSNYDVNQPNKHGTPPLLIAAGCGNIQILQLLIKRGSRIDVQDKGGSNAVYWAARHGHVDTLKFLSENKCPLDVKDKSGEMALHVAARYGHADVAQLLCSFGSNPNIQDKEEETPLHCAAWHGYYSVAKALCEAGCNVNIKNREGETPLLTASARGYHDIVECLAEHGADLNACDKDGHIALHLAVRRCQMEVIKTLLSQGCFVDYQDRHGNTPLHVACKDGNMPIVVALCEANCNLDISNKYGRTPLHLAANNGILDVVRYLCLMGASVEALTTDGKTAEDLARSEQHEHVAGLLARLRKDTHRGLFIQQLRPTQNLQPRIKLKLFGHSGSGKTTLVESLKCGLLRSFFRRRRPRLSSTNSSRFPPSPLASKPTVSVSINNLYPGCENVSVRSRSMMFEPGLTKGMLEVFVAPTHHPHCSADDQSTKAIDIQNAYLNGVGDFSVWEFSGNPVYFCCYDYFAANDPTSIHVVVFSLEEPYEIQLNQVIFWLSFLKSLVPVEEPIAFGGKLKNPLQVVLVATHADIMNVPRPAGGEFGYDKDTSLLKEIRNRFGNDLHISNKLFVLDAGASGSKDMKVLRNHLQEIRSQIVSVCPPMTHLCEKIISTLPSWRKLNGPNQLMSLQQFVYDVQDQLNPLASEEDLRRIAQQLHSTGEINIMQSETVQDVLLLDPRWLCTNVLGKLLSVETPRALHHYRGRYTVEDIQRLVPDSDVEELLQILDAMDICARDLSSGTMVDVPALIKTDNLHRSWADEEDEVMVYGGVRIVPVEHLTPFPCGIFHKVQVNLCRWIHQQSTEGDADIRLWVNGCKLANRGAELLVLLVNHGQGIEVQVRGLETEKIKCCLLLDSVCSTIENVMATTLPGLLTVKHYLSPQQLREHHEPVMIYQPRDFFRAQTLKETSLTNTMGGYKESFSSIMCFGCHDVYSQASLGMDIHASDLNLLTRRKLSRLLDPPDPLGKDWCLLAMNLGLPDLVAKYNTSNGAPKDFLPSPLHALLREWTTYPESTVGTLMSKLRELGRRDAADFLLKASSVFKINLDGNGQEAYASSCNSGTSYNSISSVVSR
LATS2, sequence (Q9NRM7 whole entry): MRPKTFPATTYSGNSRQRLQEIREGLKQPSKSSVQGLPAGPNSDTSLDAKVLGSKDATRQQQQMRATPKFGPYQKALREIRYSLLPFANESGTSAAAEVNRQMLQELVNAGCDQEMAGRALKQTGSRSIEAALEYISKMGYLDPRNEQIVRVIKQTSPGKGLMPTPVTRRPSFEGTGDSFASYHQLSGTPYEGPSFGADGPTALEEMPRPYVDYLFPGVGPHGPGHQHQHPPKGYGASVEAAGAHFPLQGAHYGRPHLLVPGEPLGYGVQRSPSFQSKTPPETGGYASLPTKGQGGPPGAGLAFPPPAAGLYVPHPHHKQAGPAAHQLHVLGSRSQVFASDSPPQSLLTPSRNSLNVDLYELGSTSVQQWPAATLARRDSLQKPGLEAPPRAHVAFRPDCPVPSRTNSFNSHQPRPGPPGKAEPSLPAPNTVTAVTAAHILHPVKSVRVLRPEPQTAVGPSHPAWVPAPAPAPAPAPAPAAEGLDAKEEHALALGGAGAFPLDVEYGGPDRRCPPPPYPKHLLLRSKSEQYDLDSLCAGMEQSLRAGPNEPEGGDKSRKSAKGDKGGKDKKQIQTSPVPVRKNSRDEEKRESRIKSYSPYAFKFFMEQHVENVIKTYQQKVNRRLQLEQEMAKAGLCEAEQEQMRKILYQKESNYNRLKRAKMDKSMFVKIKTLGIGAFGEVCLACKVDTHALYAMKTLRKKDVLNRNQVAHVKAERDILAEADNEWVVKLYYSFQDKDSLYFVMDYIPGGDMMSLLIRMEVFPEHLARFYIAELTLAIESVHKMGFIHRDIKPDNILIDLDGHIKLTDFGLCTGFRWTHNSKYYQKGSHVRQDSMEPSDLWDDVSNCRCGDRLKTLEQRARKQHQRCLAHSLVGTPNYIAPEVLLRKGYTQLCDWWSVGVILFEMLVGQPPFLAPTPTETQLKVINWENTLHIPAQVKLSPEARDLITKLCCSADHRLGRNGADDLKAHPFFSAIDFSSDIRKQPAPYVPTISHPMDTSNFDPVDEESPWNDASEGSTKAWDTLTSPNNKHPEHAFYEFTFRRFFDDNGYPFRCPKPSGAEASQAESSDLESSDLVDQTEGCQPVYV

Compound: c1cc(-c2ccc3[nH]ncc3c2)ccn1 [TG693, 5-(4-pyridinyl)-1H-indazole]
- inhibition at 1 µM [1]: 3.8%
- inhibition at 1 µM [2]: 4.6%
- inhibition at 1 µM [3]: 6.2%
- inhibition at 1 µM [4]: -1.8%
- inhibition at 1 µM [5]: 76.1%
- inhibition at 1 µM [6]: 2.4%
- inhibition at 1 µM [7]: -3.5%
- inhibition at 1 µM [8]: -1.5%
- inhibition at 1 µM [9]: 2.2%
- inhibition at 1 µM [10]: 1.3%
- inhibition at 1 µM [11]: -4.4%
- inhibition at 1 µM [12]: -6.8%
- inhibition at 1 µM [13]: -1.5%
- inhibition at 1 µM [14]: -3.8%
- inhibition at 1 µM [15]: -8.4%
- inhibition at 1 µM [16]: 5.9%
- inhibition at 1 µM [17]: 2.6%
- inhibition at 1 µM [18]: 25.1%
- inhibition at 1 µM [19]: -22.2%
- inhibition at 1 µM [20]: 23.2%
- inhibition at 1 µM [21]: -5.1%
- inhibition at 1 µM [22]: 1%
- inhibition at 1 µM [23]: -2.5%
- inhibition at 1 µM [24]: -5.1%
- inhibition at 1 µM [25]: -3.8%
- inhibition at 1 µM [26]: -51.3%
- inhibition at 1 µM [27]: 0%
- inhibition at 1 µM [28]: 5.4%
- inhibition at 1 µM [29]: 46.3%
- inhibition at 1 µM [30]: -4.7%
- inhibition at 1 µM [31]: -1.5%
